Assay results from ChEMBL document CHEMBL1201861, “Genomics of Drug Sensitity in Cancer screening data, Wellcome Trust Sanger Institute”.

How the values were obtained:
Experiment in all cases: cells
Assay type in all cases: functional, cell-based
Conditions in all cases: Homo sapiens
[1] = system: SK-NEP-1;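 further: growth inhibition of human SK-NEP-1 cells, read out by a cell viability assay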
Description: SANGER: Inhibition of human SK-NEP-1 cell growth in a cell viability assay.

[2] = system: DSH1;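 further: growth inhibition of human DSH1 cells, measured with a cell viability readout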
Description: SANGER: Inhibition of human DSH1 cell growth in a cell viability assay.

[3] = system: NCI-H1304;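 further: growth inhibition of the cancer cell line, measured in a cell viability assay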
Description: SANGER: Inhibition of human NCI-H1304 cell growth in a cell viability assay.

[4] = system: DMS-79;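 further: growth inhibition measured with a cell viability assay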
Description: SANGER: Inhibition of human DMS-79 cell growth in a cell viability assay.

[5] = system: MS-1;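 further: growth inhibition of MS-1 cells, read out by cell viability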
Description: SANGER: Inhibition of human MS-1 cell growth in a cell viability assay.

[6] = system: BV-173
Description: SANGER: Inhibition of human BV-173 cell growth in a cell viability assay.

[7] = system: TE-5;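 further: inhibition of cell growth, read out by a cell viability assay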
Description: SANGER: Inhibition of human TE-5 cell growth in a cell viability assay.

[8] = system: EM-2;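 further: growth inhibition of EM-2 cells, read out with a cell viability assay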
Description: SANGER: Inhibition of human EM-2 cell growth in a cell viability assay.

[9] = system: A3-KAW;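 further: growth inhibition of human A3-KAW cells, read out with a cell viability assay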
Description: SANGER: Inhibition of human A3-KAW cell growth in a cell viability assay.

[10] = system: KINGS-1;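 further: cell viability assay measuring suppression of KINGS-1 cell growth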
Description: SANGER: Inhibition of human KINGS-1 cell growth in a cell viability assay.

[11] = system: KS-1;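 further: growth inhibition of KS-1 cells, read out with a cell viability assay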
Description: SANGER: Inhibition of human KS-1 cell growth in a cell viability assay.

[12] = system: LB373-MEL-D;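 further: growth inhibition of the cell line, read out in a cell viability assay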
Description: SANGER: Inhibition of human LB373-MEL-D cell growth in a cell viability assay.

[13] = system: MPP-89;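 further: growth inhibition of human MPP-89 cells, read out with a cell viability assay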
Description: SANGER: Inhibition of human MPP-89 cell growth in a cell viability assay.

[14] = system: AM-38;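 further: growth inhibition of AM-38 cells of human origin, read out by a cell viability assay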
Description: SANGER: Inhibition of human AM-38 cell growth in a cell viability assay.

[15] = system: SNU1;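 further: growth inhibition of human NCI-SNU-1 cells, measured with a cell viability assay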
Description: SANGER: Inhibition of human NCI-SNU-1 cell growth in a cell viability assay.

[16] = system: NCI-H1299;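 further: growth inhibition of human NCI-H1299 cells, read out by a cell viability assay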
Description: SANGER: Inhibition of human NCI-H1299 cell growth in a cell viability assay.

[17] = system: COR-L88;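 further: growth inhibition of COR-L88 cells, read out with a cell viability assay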
Description: SANGER: Inhibition of human COR-L88 cell growth in a cell viability assay.

[18] = system: NCI-H510A;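 further: growth inhibition of NCI-H510A cells, read out with a cell viability assay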
Description: SANGER: Inhibition of human NCI-H510A cell growth in a cell viability assay.

[19] = system: NB13;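 further: cell viability readout measuring growth inhibition of human NB13 cells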
Description: SANGER: Inhibition of human NB13 cell growth in a cell viability assay.

[20] = system: KU812 cell line;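 further: growth inhibition of KU812 cells, read out with a cell viability assay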
Description: SANGER: Inhibition of human KU812 cell growth in a cell viability assay.

[21] = system: LNCaP-Clone-FGC
Description: SANGER: Inhibition of human LNCaP-Clone-FGC cell growth in a cell viability assay.

[22] = system: SNU-5;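 further: cell viability readout used to measure growth inhibition in human NCI-SNU-5 cells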
Description: SANGER: Inhibition of human NCI-SNU-5 cell growth in a cell viability assay.

[23] = system: GI-ME-N;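 further: growth inhibition of human GI-ME-N cells, read out with a cell viability assay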
Description: SANGER: Inhibition of human GI-ME-N cell growth in a cell viability assay.

[24] = system: SF-539;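 further: Read-out is a cell viability assay, with IC50 reflecting inhibition of cell growth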
Description: SANGER: Inhibition of human SF539 cell growth in a cell viability assay.

[25] = system: NCI-H2126;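 further: growth inhibition of the cancer cell line, determined with a cell viability readout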
Description: SANGER: Inhibition of human NCI-H2126 cell growth in a cell viability assay.

[26] = system: NCI-H747;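 further: growth inhibition of human NCI-H747 cells, read out by a cell viability assay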
Description: SANGER: Inhibition of human NCI-H747 cell growth in a cell viability assay.

[27] = system: KY821;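 further: growth inhibition of human KY821 cells, read out by a cell viability assay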
Description: SANGER: Inhibition of human KY821 cell growth in a cell viability assay.

[28] = system: COLO-800;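 further: growth inhibition of COLO-800 cells, read out with a cell viability assay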
Description: SANGER: Inhibition of human COLO-800 cell growth in a cell viability assay.

[29] = system: EW-3;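 further: cell viability assay read-out, IC50 reflects inhibition of growth of the EW-3 cells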
Description: SANGER: Inhibition of human EW-3 cell growth in a cell viability assay.

[30] = system: NCI-H1648;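 further: cell viability assay measuring inhibition of NCI-H1648 cell growth, from the Sanger screening data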
Description: SANGER: Inhibition of human NCI-H1648 cell growth in a cell viability assay.

[31] = system: MOLT-16;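 further: growth inhibition of human MOLT-16 cells, read out with a cell viability assay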
Description: SANGER: Inhibition of human MOLT-16 cell growth in a cell viability assay.

[32] = system: HOP-62;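 further: cell growth inhibition determined with a viability assay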
Description: SANGER: Inhibition of human HOP-62 cell growth in a cell viability assay.

[33] = system: VA-ES-BJ;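 further: growth inhibition of the VA-ES-BJ cell line, read out by a cell viability assay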
Description: SANGER: Inhibition of human VA-ES-BJ cell growth in a cell viability assay.

[34] = system: NCI-H82;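 further: growth inhibition of NCI-H82 cells, measured with a cell viability readout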
Description: SANGER: Inhibition of human NCI-H82 cell growth in a cell viability assay.

[35] = system: KALS-1;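 further: growth inhibition of KALS-1 cells, determined with a cell viability assay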
Description: SANGER: Inhibition of human KALS-1 cell growth in a cell viability assay.

[36] = system: ALL-PO;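 further: growth inhibition of ALL-PO cells, read out by a cell viability assay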
Description: SANGER: Inhibition of human ALL-PO cell growth in a cell viability assay.

[37] = system: 8-MG-BA;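 further: growth inhibition of 8-MG-BA cells, read out with a cell viability assay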
Description: SANGER: Inhibition of human 8-MG-BA cell growth in a cell viability assay.

[38] = system: ES8;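 further: growth inhibition of human ES8 cells, read out with a cell viability assay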
Description: SANGER: Inhibition of human ES8 cell growth in a cell viability assay.

[39] = system: J-RT3-T3-5;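 further: cell viability assay measuring growth inhibition of human J-RT3-T3-5 cells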
Description: SANGER: Inhibition of human J-RT3-T3-5 cell growth in a cell viability assay.

[40] = system: C8166;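 further: growth inhibition of human C8166 cells measured by a cell viability assay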
Description: SANGER: Inhibition of human C8166 cell growth in a cell viability assay.

[41] = system: HAL-01;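 further: growth inhibition of human HAL-01 cells, read out with a cell viability assay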
Description: SANGER: Inhibition of human HAL-01 cell growth in a cell viability assay.

[42] = system: HL-60;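 further: growth inhibition of human HL-60 cells, read out with a cell viability assay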
Description: SANGER: Inhibition of human HL-60 cell growth in a cell viability assay.

[43] = system: K5
Description: SANGER: Inhibition of human K5 cell growth in a cell viability assay.

[44] = system: Becker;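 further: growth inhibition of Becker cells, read out with a cell viability assay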
Description: SANGER: Inhibition of human Becker cell growth in a cell viability assay.

[45] = system: NB10;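 further: growth inhibition of NB10 cells, read out by a cell viability assay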
Description: SANGER: Inhibition of human NB10 cell growth in a cell viability assay.

[46] = system: MSTO-211H
Description: SANGER: Inhibition of human MSTO-211H cell growth in a cell viability assay.

[47] = system: SCC-15;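 further: growth inhibition of SCC-15 cells, read out with a cell viability assay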
Description: SANGER: Inhibition of human SCC-15 cell growth in a cell viability assay.

[48] = system: JAR;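 further: growth inhibition of human JAR cells determined with a cell viability assay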
Description: SANGER: Inhibition of human JAR cell growth in a cell viability assay.

[49] = system: KMOE-2;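 further: growth inhibition of human KMOE-2 cells, read out with a cell viability assay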
Description: SANGER: Inhibition of human KMOE-2 cell growth in a cell viability assay.

[50] = system: IST-MEL1;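 further: growth inhibition of the cell line, read out with a cell viability assay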
Description: SANGER: Inhibition of human IST-MEL1 cell growth in a cell viability assay.

[51] = system: no-10;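 further: growth inhibition of no-10 cells, read out with a cell viability assay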
Description: SANGER: Inhibition of human no-10 cell growth in a cell viability assay.

[52] = system: OCUB-M;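 further: growth inhibition of the cancer cell line, read out through a cell viability assay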
Description: SANGER: Inhibition of human OCUB-M cell growth in a cell viability assay.

[53] = system: D-263MG
Description: SANGER: Inhibition of human D-263MG cell growth in a cell viability assay.

[54] = system: MOLT-4
Description: SANGER: Inhibition of human MOLT-4 cell growth in a cell viability assay.

[55] = system: LB771-HNC
Description: SANGER: Inhibition of human LB771-HNC cell growth in a cell viability assay.

[56] = system: U-266
Description: SANGER: Inhibition of human U-266 cell growth in a cell viability assay.

[57] = system: GR-ST
Description: SANGER: Inhibition of human GR-ST cell growth in a cell viability assay.

[58] = system: OS-RC-2
Description: SANGER: Inhibition of human OS-RC-2 cell growth in a cell viability assay.

[59] = system: SK-UT-1
Description: SANGER: Inhibition of human SK-UT-1 cell growth in a cell viability assay.

[60] = system: TE-9
Description: SANGER: Inhibition of human TE-9 cell growth in a cell viability assay.

[61] = system: NCI-H1650
Description: SANGER: Inhibition of human NCI-H1650 cell growth in a cell viability assay.

[62] = system: GAK
Description: SANGER: Inhibition of human GAK cell growth in a cell viability assay.

[63] = system: HCC2218
Description: SANGER: Inhibition of human HCC2218 cell growth in a cell viability assay.

[64] = system: BT-474
Description: SANGER: Inhibition of human BT-474 cell growth in a cell viability assay.

[65] = system: MHH-NB-11
Description: SANGER: Inhibition of human MHH-NB-11 cell growth in a cell viability assay.

[66] = system: MLMA
Description: SANGER: Inhibition of human MLMA cell growth in a cell viability assay.

Measured: IC50

C/C(O)=C(\C#N)C(=O)Nc1cc(Br)ccc1Br
> 16 µM: all assays above

O=c1[nH]c2ccccc2n1C1CCN(Cc2ccc(-c3nc4cc5[nH]cnc5cc4nc3-c3ccccc3)cc2)CC1
1.73 µM: [20]
0.987 µM: [2]
1.35 µM: [59]
> 2.56 µM: all other assays above
